In ChEMBL document CHEMBL5390201, “The Natural Alkaloid (-)-N-Hydroxyapiosporamide Suppresses Colorectal Tumor Progression as an NF-κB Pathway Inhibitor by Targeting the TAK1-TRAF6 Complex” (J Nat Prod, 2023):
The source made the active and inactive calls. No cut-off for these calls is given here.

Assays:
[1] = test system: HCT-116; assay: Antitumor activity against human HCT-116 cells xenografted in athymic nude BALB/c mouse assessed as induction of apoptosis by measuring increase in cleaved PARP expression in tumor at 15 mg/kg, ip administered every other day and measured after 14 days by immunohistochemistry analysis; assay type: functional, organism-based; settings: time 14.0 day
[2] = test system: HCT-116; assay: Induction of apoptosis in human HCT-116 cells assessed as early apoptotic cells at 5 uM preincubated with Z-VAD-FMK for 1 hr followed by compound addition and measured after 24 hrs by Annexin V-FITC/PI staining based flow cytometric analysis (reference value: 4.75 %); assay type: functional
[3] = test system: HT-29; assay: Induction of cell cycle arrest in human HT-29 cells assessed as decrease in P-cdc2 protein expression upto 10 uM incubated for 24 hrs by Western blot analysis; assay type: functional, cell-based

## C[C@@H]1CC[C@H]2[C@H](C(=O)c3c(O)c([C@@]4(O)CC[C@@H](O)[C@H]5O[C@H]54)cn(O)c3=O)[C@H](C)C=C[C@@H]2C1
[1]
  Activity: Active
[2]
  Activity: 16.8%
[3]
  Activity: Active
